Experimental data: the supplement of paper PMC10307832

Tests used:
Assay in all cases: relative viability (nuclei count vs DMSO), 5 days (fraction); higher = more cells survive
Midostaurin + Trametinib = compound: CO[C@@H]1[C@H](N(C)C(=O)c2ccccc2)C[C@H]2O[C@]1(C)n1c3ccccc3c3c4c(c5c6ccccc6n2c5c31)C(=O)NC4 [Midostaurin] + CC(=O)Nc1cccc(-n2c(=O)n(C3CC3)c(=O)c3c(Nc4ccc(I)cc4F)n(C)c(=O)c(C)c32)c1 [Trametinib] (partner 0.02 µM)
Procedure, shortened: (§1)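 Lung cancer cell lines in 1536-well plates were dosed by pin tool the day after seeding, either with one drug alone or with a fixed anchor-drug dose plus five library-drug doses (not always all listed) in √10 steps. After 5 days, cells were fixed and their nuclei stained in one step (final 0.05% Triton X-100, 1% formaldehyde, 1 ug/ml Hoechst), then counted on 4× images. Relative viability is the nuclei count in treated wells divided by that in vehicle wells. Values are medians of duplicate plates.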

Midostaurin + Lapatinib = compound: CO[C@@H]1[C@H](N(C)C(=O)c2ccccc2)C[C@H]2O[C@]1(C)n1c3ccccc3c3c4c(c5c6ccccc6n2c5c31)C(=O)NC4 [Midostaurin] + CS(=O)(=O)CCNCc1ccc(-c2ccc3ncnc(Nc4ccc(OCc5cccc(F)c5)c(Cl)c4)c3c2)o1 [Lapatinib] (partner 2 µM)
Procedure, shortened: as §1

Midostaurin + Pictilisib = compound: CO[C@@H]1[C@H](N(C)C(=O)c2ccccc2)C[C@H]2O[C@]1(C)n1c3ccccc3c3c4c(c5c6ccccc6n2c5c31)C(=O)NC4 [Midostaurin] + CS(=O)(=O)N1CCN(Cc2cc3nc(-c4cccc5[nH]ncc45)nc(N4CCOCC4)c3s2)CC1 [Pictilisib] (partner 1 µM)
Procedure, shortened: as §1

Midostaurin + AZD7762 = compound: CO[C@@H]1[C@H](N(C)C(=O)c2ccccc2)C[C@H]2O[C@]1(C)n1c3ccccc3c3c4c(c5c6ccccc6n2c5c31)C(=O)NC4 [Midostaurin] + NC(=O)Nc1cc(-c2cccc(F)c2)sc1C(=O)N[C@H]1CCCNC1 [AZD7762] (partner 0.2 µM)
Procedure, shortened: as §1

[1] = compound: COc1cc(-c2nn([C@H]3CC[C@H](N4CCN(C(C)=O)CC4)CC3)c3ncnc(N)c23)ccc1NC(=O)c1cc2ccccc2n1C + N=C(N)NC(=N)NCCc1ccccc1 [Phenformin] (partner 250 µM)
Procedure, shortened: as §1

Cell Line	relative viability (Midostaurin + Trametinib; first compound 0.01 µM)	relative viability (Midostaurin + Trametinib; first compound 0.03162 µM)	relative viability (Midostaurin + Trametinib; first compound 0.1 µM)	relative viability (Midostaurin + Trametinib; first compound 0.3162 µM)	relative viability (Midostaurin + Lapatinib; first compound 0.01 µM)	relative viability (Midostaurin + Lapatinib; first compound 0.03162 µM)	relative viability (Midostaurin + Lapatinib; first compound 0.1 µM)	relative viability (Midostaurin + Lapatinib; first compound 0.3162 µM)	relative viability (Midostaurin + Pictilisib; first compound 0.01 µM)	relative viability (Midostaurin + Pictilisib; first compound 0.03162 µM)	relative viability (Midostaurin + Pictilisib; first compound 0.1 µM)	relative viability (Midostaurin + Pictilisib; first compound 0.3162 µM)	relative viability (Midostaurin + AZD7762; first compound 0.01 µM)	relative viability (Midostaurin + AZD7762; first compound 0.03162 µM)	relative viability (Midostaurin + AZD7762; first compound 0.1 µM)	relative viability (Midostaurin + AZD7762; first compound 0.3162 µM)	relative viability ([1]; first compound 0.0128 µM)	relative viability ([1]; first compound 0.04048 µM)	relative viability ([1]; first compound 0.128 µM)	relative viability ([1]; first compound 1.28 µM)
NCI-H2170	0.965	0.9	0.894	1.02	0.29	0.259	0.255	0.285	0.31	0.28	0.301	0.317	0.891	0.85	0.866	1.14	0.437	0.412	0.405	0.377
NCI-H460	0.176	0.174	0.116	0.12	0.839	1.03	0.971	0.936	0.388	0.296	0.346	0.417	0.678	0.626	0.635	0.704	0.551	0.553	0.501	0.482
HCC-15	0.411	0.353	0.367	0.372	0.85	0.776	0.692	0.921	0.785	0.705	0.762	0.823	1.16	0.98	0.532	1.07	0.525	0.447	0.476	0.42
EPLC-272H	0.352	0.304	0.28	0.301	0.918	0.867	0.75	0.855	0.338	0.305	0.295	0.298	0.208	0.287	0.259	0.165	0.46	–	0.27	0.282
